Among the test systems are ACHN renal; CCRF-CEM leukemia; HCT-15 colon; IGROV1 ovarian; NCI-H23 lung; OVCAR-3 ovarian; SF-295 CNS; SK-MEL-2 melanoma; SR leukemia; U251 CNS; UACC-257 melanoma; UACC-62 melanoma; UO-31 renal; SN12C renal; HCC-2998 colon.
Common to all, as to assay: NCI anticancer screen, dose series, 48 h

This is an account of results in PubChem BioAssay (NCI).

Each structure is given as a SMILES string.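 Interpolation was linear, between the two tested concentrations surrounding the appropriate level; five concentrations were tested over 48 hours in 96-well plates. Here, GI50 denotes the concentration required for 50% inhibition of growth. TGI: total growth inhibition.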 A value given as a limit tells only on which side of the number the result lay.

Take `COC(=O)[C@H](C)N(C)C(=O)[C@H](C)N1[C@@H](c2ccccc2)COC1(C)C`: the TGI in the experiment with ACHN renal, in the experiment on CCRF-CEM leukemia, with HCT-15 colon, in the experiment on IGROV1 ovarian, with NCI-H23 lung and with OVCAR-3 ovarian was over 100 µM each time. Besides, the TGI in the experiment on SF-295 CNS, in the experiment with SK-MEL-2 melanoma, with SR leukemia, with U251 CNS, with UACC-257 melanoma and with UACC-62 melanoma was over 100 µM in each case. The compound also gave a TGI in the experiment on UO-31 renal of over 100 µM.
For `CC1N=C(c2ccccc2)OC1=O` (stereo not given), the TGI with ACHN renal, in the experiment with CCRF-CEM leukemia, in the experiment on HCT-15 colon, with IGROV1 ovarian, with NCI-H23 lung and in the experiment on OVCAR-3 ovarian was over 100 µM throughout. Also, the TGI in the experiment with SF-295 CNS, in the experiment with SK-MEL-2 melanoma, in the experiment on SN12C renal, with U251 CNS, in the experiment on UACC-257 melanoma and in the experiment with UACC-62 melanoma was over 100 µM in each case. The compound further came in with a TGI in the experiment with UO-31 renal of over 100 µM.
`COc1ccc(C2=NN(C(=O)c3ccc(Cl)cc3)C(O)(c3cc(F)c(Cl)cc3Cl)C2)cc1` (stereo not given): the TGI in the experiment with ACHN renal, in the experiment with CCRF-CEM leukemia, in the experiment with HCC-2998 colon, with HCT-15 colon, with IGROV1 ovarian and in the experiment on NCI-H23 lung was over 100 µM in each case. Further, the TGI with OVCAR-3 ovarian, with SF-295 CNS, in the experiment with SK-MEL-2 melanoma, with SN12C renal, with U251 CNS and in the experiment on UACC-257 melanoma was over 100 µM in each case. Also, the TGI in the experiment with UACC-62 melanoma was over 100 µM; with UO-31 renal, 44.4 µM.
Regarding `N[C@H]1CCN(c2c(F)cc3c(=O)c(C(=O)O)cn4c3c2Oc2c-4ccc3c2ccc2ccccc23)C1`, the TGI in the experiment with ACHN renal is over 24.4 µM; with HCT-15 colon, over 51.3 µM; in the experiment on IGROV1 ovarian, over 48.8 µM; in the experiment with NCI-H23 lung, over 71.7 µM; in the experiment with OVCAR-3 ovarian, over 100 µM; in the experiment on SF-295 CNS, over 100 µM. Moreover, the TGI was over 100 µM with SK-MEL-2 melanoma; over 100 µM in the experiment on SN12C renal; over 100 µM in the experiment on SR leukemia; 6.76 µM in the experiment on U251 CNS; over 100 µM with UACC-62 melanoma; over 71.3 µM with UO-31 renal. Also, the GI50 with SR leukemia is 0.283 µM.
As for `COC(=O)[C@@H]1[C@H]2CC[C@]3(C)[C@@H](OC(C)=O)CC[C@H]3[C@@H]2CC[C@H]1C(C)=O`, the TGI with ACHN renal, with CCRF-CEM leukemia, with HCC-2998 colon, in the experiment with HCT-15 colon, in the experiment on IGROV1 ovarian and in the experiment on NCI-H23 lung was over 100 µM throughout. Also, the TGI in the experiment on OVCAR-3 ovarian, with SF-295 CNS, in the experiment with SK-MEL-2 melanoma, with SN12C renal, with U251 CNS and with UACC-257 melanoma was over 100 µM each time. For the same compound, the TGI in the experiment on UACC-62 melanoma and in the experiment with UO-31 renal was over 100 µM in each case.
In the case of `CN1C(=O)N(c2nc3ccccc3[nH]2)C(C)(C)C1=O`, the TGI in the experiment with ACHN renal, in the experiment with CCRF-CEM leukemia, with HCT-15 colon, in the experiment on IGROV1 ovarian, in the experiment on NCI-H23 lung and in the experiment on OVCAR-3 ovarian was over 100 µM throughout. For the same compound, the TGI in the experiment with SF-295 CNS, with SK-MEL-2 melanoma, in the experiment with SN12C renal, in the experiment on SR leukemia, with U251 CNS and with UACC-257 melanoma was over 100 µM throughout. Also, the TGI in the experiment with UACC-62 melanoma and with UO-31 renal was over 100 µM in each case.
For `O=C(CCN1CCCC1)c1ccc(Oc2ccc(F)cc2)cc1`, the TGI with ACHN renal was over 100 µM; with CCRF-CEM leukemia it was 46.7 µM; in the experiment with HCC-2998 colon, over 100 µM; in the experiment with HCT-15 colon, over 100 µM; in the experiment with IGROV1 ovarian it was over 100 µM; in the experiment on NCI-H23 lung, over 100 µM. Further, the TGI in the experiment with OVCAR-3 ovarian, in the experiment with SF-295 CNS, in the experiment with SK-MEL-2 melanoma, in the experiment with SN12C renal, in the experiment on U251 CNS and in the experiment with UACC-257 melanoma was over 100 µM in each case. In addition, the TGI with UACC-62 melanoma and with UO-31 renal was over 100 µM each time.
In the case of `CCC(=O)CCC1=Nc2nnc(CCCCc3nnc4n3C(=O)C(CCC(=O)CC)=N4)n2C1=O`, the TGI in the experiment on ACHN renal, with CCRF-CEM leukemia, in the experiment on HCC-2998 colon, with HCT-15 colon, in the experiment with IGROV1 ovarian and with NCI-H23 lung was over 100 µM throughout. Moreover, the TGI with OVCAR-3 ovarian, with SF-295 CNS, in the experiment with SK-MEL-2 melanoma, in the experiment with SN12C renal, in the experiment with UACC-257 melanoma and in the experiment with UACC-62 melanoma was over 100 µM in each case. In addition, the TGI in the experiment with UO-31 renal was over 100 µM.
Consider `Cn1c(N)c(/C=C/C(=O)Oc2ccccc2)c(=O)n(C)c1=O`, for which the TGI in the experiment on ACHN renal, in the experiment with CCRF-CEM leukemia, in the experiment on HCC-2998 colon, in the experiment with HCT-15 colon, with IGROV1 ovarian and with NCI-H23 lung was over 100 µM throughout. Further, the TGI in the experiment with OVCAR-3 ovarian was over 100 µM; with SF-295 CNS, 93.6 µM; in the experiment with SK-MEL-2 melanoma it was over 100 µM; in the experiment with SN12C renal it was over 100 µM; in the experiment on U251 CNS it was over 100 µM; with UACC-257 melanoma, over 100 µM. Besides, the TGI in the experiment on UACC-62 melanoma and in the experiment with UO-31 renal was over 100 µM in each case.
As to `Oc1ccc(/C=N/c2nccs2)c(O)c1`, the TGI in the experiment on ACHN renal, in the experiment on HCC-2998 colon, with HCT-15 colon, with IGROV1 ovarian, with NCI-H23 lung and in the experiment with OVCAR-3 ovarian was over 100 µM each time. The TGI with SF-295 CNS, with UACC-257 melanoma, in the experiment with UACC-62 melanoma and in the experiment on UO-31 renal was over 100 µM in each case.
Regarding `CC1=NNC(=O)C1C1C=C(c2c[nH]c3ccccc23)OC1=O` (stereo not given), the TGI in the experiment on ACHN renal, in the experiment with CCRF-CEM leukemia, with HCT-15 colon, in the experiment on IGROV1 ovarian, in the experiment with NCI-H23 lung and in the experiment with OVCAR-3 ovarian was over 100 µM each time. Moreover, the TGI with SF-295 CNS, in the experiment with SK-MEL-2 melanoma, in the experiment on SN12C renal, with U251 CNS, in the experiment with UACC-257 melanoma and in the experiment on UACC-62 melanoma was over 100 µM each time. In the experiment on UO-31 renal, the TGI is over 100 µM.
